≈ marks a conversion by molar mass, not a printed value.
Legend:
Lymphocyte = assay: Immunosuppressive activity in lymphocytes by mixed lymphocyte reaction assay; assay type: functional, cell-based
Thymocyte = assay: Immunosuppressive activity in thymocytes by thymocyte proliferation assay; assay type: functional, cell-based
Bacillus anthracis = assay: Antimicrobial activity against Bacillus anthracis; assay type: functional
Plasmodium falciparum = assay: Antiplasmodial activity against Plasmodium falciparum; assay type: functional; conditions: read-out: LD50 (the source's name)

Structure (SMILES) | IC50 (Lymphocyte) [µM] | IC50 (Thymocyte) [µM] | MIC (Bacillus anthracis) [µg/mL] | LC50 (Plasmodium falciparum) [µg/mL]
C=C1CC[C@H]2[C@]3(C)C[C@@H](C=C(C)C)O[C@H]3CC[C@]2(C)[C@@H]1Cc1c(O)c(C)c(C)oc1=O [SUBGLUTINOL A] | 0.1 | 0.1 | – | –
CS[C@H]1SC[C@H]2C(=O)N(C)[C@@H](C(C)C)C(=O)OC[C@@H](NC(=O)c3cnc4ccccc4n3)C(=O)N[C@@H](C)C(=O)N(C)[C@@H]1C(=O)N(C)[C@@H](C(C)C)C(=O)OC[C@@H](NC(=O)c1cnc3ccccc3n1)C(=O)N[C@@H](C)C(=O)N2C [ECHINOMYCIN] | – | – | 1 (≈ 0.908 µM) | 0.007 (≈ 0.00636 µM)
C=C1CC[C@H]2[C@]3(C)C[C@H](C=C(C)C)O[C@H]3CC[C@]2(C)[C@@H]1Cc1c(O)c(C)c(C)oc1=O [SUBGLUTINOL B] | 0.1 | 0.1 | – | –

Source: ChEMBL document CHEMBL1146482, “Natural products from endophytic microorganisms” (J Nat Prod, 2004)
